Measurements as given in patent US20250268873A1, “COMBINATION OF DUAL ATM AND DNA-PK INHIBITORS AND IMMUNOTHERAPEUTIC AGENTS FOR USE IN CANCER THERAPY” (XRAD THERAPEUTICS, INC., priority 2021, published 2025).

Assays:
[1] = target: ATM (Homo sapiens (Human), UniProt Q13315); assay: Pharmacodynamic assay, pKAP1/KAP1 in FADU tumors; type: in vivo; settings: for pKAP1/KAP1: FADU tumors
Procedure: FADU or MDA-MB-231 cells were harvested during log phase growth for in vivo implantation. The resuspended cells were washed three times in phosphate buffered saline (PBS) before preparing the working dilution in PBS. FADU cells were diluted to 1×10^7 cells/mL and MDA-MB-231 cells were diluted to 5×10^7 cells/mL. Each mouse was injected subcutaneously in the right flank with 100 μL of the cellular suspension. Tumor growth was monitored until the tumors reached a target volume of at least 100 mm^3, at which point mice were randomly stratified into four treatment groups.
Tumor studies were performed as follows. Mice bearing FADU or MDA-231 tumors were pre-dosed with vehicle alone or compound 569 alone at 3, 6, and 10 mg/kg. Tumors were then irradiated with 10 Gy 45 min after vehicle or compound 569 administration or left unirradiated (vehicle and compound 569 at 10 mg/kg). Tumors were harvested 1 h post radiation.
Tissue homogenates for pharmacodynamic analyses were collected and processed as follows. Tumor tissues from FADU or MDA-MB-231 tumors were flash frozen in liquid nitrogen and pulverized on dry ice using a tissue pulverizer. A portion of the tumor powder was transferred into a microtube, followed by addition of 500 μL of RIPA buffer [[…], pH 8.0, 150 mM NaCl, 0.1% SDS, 0.5% sodium deoxycholate, 1% IGEPAL® CA-630 (Sigma, I8896)]. To 10 ml of RIPA buffer, 2 tablets each of Protease inhibitor and Phosphatase inhibitor (Roche, #04693159001 & #04906837001), 200 μL of 0.1 M PMSF and 160 μL of Aprotinin, (Sigma, A6279) were added. The suspension was homogenized on ice with a pellet pestle motor (KONTES) and incubated on ice for 30 minutes. Cell lysates were centrifuged at 13,200 rpm for 15 min at 4° C. and supernatants were transferred to a new tube and analyzed for protein concentration with a BCA kit (Pierce, 23227), followed by immunoblotting.

[2] = tested on: DNA-PK and ATM kinases; assay: Immunoblot of radiation-induced phosphorylation in MCF7 cells; type: cell-based, human; settings: 20, 100, 500, 1000 nM, 30 min pre-treatment, 10 Gy IR
Source text: Antibodies recognizing phosphorylated/activated ATM (S1981, #ab81292) and DNA-PKcs (S2056, #ab18192) were purchased from Abcam Biotechnology (Cambridge, MA). Antibodies to ATM (#A1106) and DNA-PKcs (#ab1832) were from Sigma and Abcam, respectively. Phospho-KAP1 (S824, #A300-767A) and KAP1 (A700-014) antibodies were from Bethyl Labs (Montgomery, TX). Phospho-TBK1 (#5483), cGAS (#15102), and pSTING (S366, #19781S) antibodies were from Cell Signaling Technology (CST) (Danvers, MA). STING (PA5-23381) antibodies were from ThermoFisher Scientific (Waltham, MA), and actin (#A5316) antibodies were from Sigma. […]
Cells were pretreated with Compound 569 at 20, 100, 500, or 1000 nM or DMSO for 30 min and then irradiated with 0 or 10 Gy (XRAD 160, Precision X Ray) as shown in FIG. 1. […] One hour after IR, cells were lysed in RIPA buffer ([…], pH 8.0, 150 mM NaCl, 0.1% SDS, 0.5% sodium deoxycholate, 1% IGEPAL® CA-630 (Sigma, 18896) for 20 min at 4° C. in the presence of protease and phosphatase inhibitor cocktails (Roche, #04693159001 & #04906837001). Cell lysates were centrifuged at 13,200 g for 10 min at 4° C. and supernatants were analyzed for protein content using BCA assay (Pierce™ BCA Protein Assay Kit, cat #23227, ThermoFisher Waltham, MA 02451) and equal amounts of protein/lane were used for subsequent immunoblot analyses. Proteins were denatured by adding NuPAGE LSD Sample Buffer [4×] […]

Chain of ATM (Q13315 whole entry): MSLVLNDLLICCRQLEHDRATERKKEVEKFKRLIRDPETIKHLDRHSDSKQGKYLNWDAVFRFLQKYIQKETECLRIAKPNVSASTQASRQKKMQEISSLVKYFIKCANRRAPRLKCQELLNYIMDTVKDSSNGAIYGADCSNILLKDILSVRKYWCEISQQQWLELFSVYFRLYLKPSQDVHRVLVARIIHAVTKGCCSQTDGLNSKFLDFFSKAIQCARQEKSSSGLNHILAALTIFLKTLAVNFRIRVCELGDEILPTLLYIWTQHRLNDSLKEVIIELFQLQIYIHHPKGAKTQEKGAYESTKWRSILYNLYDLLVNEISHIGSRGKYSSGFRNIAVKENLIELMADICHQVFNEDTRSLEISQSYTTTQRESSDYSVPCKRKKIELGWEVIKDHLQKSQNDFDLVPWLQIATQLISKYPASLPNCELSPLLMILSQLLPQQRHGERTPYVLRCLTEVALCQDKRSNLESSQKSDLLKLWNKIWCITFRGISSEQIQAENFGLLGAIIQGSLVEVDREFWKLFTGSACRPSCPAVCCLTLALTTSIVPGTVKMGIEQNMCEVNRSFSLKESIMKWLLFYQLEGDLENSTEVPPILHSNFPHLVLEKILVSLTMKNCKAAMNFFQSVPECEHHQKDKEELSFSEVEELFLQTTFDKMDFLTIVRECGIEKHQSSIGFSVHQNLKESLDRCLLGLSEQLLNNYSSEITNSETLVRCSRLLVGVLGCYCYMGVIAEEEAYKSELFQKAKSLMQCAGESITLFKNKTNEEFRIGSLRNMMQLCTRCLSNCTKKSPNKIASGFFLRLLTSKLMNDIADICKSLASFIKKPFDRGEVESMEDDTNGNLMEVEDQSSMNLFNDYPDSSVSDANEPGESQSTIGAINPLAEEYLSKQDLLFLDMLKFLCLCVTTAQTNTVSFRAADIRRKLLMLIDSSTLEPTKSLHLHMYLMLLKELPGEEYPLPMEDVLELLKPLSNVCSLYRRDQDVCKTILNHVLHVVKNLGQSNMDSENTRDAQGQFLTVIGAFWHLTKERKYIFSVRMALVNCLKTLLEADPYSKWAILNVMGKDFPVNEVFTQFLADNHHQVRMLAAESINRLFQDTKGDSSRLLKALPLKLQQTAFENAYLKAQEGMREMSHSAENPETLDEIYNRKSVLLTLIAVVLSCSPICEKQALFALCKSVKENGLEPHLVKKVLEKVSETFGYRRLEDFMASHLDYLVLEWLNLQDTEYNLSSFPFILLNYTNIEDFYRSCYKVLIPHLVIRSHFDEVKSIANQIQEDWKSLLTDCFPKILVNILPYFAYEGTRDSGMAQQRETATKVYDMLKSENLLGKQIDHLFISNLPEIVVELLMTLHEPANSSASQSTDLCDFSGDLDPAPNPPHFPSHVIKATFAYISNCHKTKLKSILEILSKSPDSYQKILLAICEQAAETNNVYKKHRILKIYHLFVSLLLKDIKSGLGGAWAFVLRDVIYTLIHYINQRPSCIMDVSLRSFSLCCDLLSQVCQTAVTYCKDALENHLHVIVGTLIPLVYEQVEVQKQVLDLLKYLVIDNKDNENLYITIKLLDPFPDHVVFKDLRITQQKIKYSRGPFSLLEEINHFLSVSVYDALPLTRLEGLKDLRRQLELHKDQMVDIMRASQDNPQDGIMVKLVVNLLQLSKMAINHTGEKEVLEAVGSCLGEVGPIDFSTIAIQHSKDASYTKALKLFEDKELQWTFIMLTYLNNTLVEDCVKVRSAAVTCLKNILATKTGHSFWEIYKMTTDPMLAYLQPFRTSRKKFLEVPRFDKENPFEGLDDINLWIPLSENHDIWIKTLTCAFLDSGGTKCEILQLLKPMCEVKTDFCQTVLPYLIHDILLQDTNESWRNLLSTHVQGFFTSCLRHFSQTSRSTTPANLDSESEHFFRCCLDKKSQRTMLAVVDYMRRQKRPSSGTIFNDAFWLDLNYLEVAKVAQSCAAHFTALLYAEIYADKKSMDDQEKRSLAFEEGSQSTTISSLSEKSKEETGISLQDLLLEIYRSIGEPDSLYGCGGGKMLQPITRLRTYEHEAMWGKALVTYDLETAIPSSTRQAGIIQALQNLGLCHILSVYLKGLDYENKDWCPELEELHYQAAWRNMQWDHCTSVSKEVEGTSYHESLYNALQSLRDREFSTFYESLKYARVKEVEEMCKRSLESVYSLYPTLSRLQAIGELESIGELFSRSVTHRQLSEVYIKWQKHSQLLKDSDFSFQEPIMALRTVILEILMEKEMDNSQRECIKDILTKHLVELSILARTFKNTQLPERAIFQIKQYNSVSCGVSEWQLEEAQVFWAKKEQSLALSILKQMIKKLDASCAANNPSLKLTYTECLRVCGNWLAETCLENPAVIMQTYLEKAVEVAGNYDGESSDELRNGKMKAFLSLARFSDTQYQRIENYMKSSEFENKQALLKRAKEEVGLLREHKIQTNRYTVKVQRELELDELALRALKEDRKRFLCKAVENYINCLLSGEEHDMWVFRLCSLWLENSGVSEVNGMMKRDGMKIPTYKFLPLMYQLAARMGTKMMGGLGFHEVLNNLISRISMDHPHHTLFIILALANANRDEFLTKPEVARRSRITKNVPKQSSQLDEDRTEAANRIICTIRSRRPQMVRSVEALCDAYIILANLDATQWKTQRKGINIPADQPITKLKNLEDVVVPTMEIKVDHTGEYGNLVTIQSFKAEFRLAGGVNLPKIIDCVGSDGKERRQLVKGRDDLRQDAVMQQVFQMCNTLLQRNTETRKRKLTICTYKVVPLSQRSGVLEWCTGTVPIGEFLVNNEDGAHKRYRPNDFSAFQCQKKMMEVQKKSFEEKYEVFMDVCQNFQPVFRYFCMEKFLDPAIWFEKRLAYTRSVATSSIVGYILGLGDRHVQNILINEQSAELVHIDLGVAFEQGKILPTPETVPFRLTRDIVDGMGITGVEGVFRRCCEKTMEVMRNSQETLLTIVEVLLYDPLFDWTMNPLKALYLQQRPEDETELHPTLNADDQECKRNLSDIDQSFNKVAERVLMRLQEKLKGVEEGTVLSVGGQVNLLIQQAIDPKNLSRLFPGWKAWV

Q: What does the source list for `CC(C)NCCOc1ncc(-c2cc3c4c(cnc3cc2F)N(C)C(=O)C42CCC2)cc1NS(C)(=O)=O` [Compound 569, N-(5-(7′-Fluoro-3′-methyl-2′-oxo-2′,3′-dihydrospiro[cyclobutane-1,1′-pyrrolo[2,3-c]quinolin]-8′-yl)-2-(2-(isopropylamino)ethoxy)pyridin-3-yl)methanesulfonamide]?
A: inhibition at 10 mg/kg ([1]; 10 mg/kg, 10 Gy, FADU and MDA231 tumors (FIGS. 4 and 5), read-out: inhibition of tumor levels of radiation-induced phosphorylation of KAP1): > 80%; pKAP1/KAP1 ([1]; 10 Gy, 3 mg/kg oral): 0.0903; pKAP1/KAP1 ([1]; 10 Gy, 6 mg/kg oral): 0.0982; pKAP1/KAP1 ([1]; 10 Gy, 10 mg/kg oral): 0.156; pKAP1/KAP1 ([1]; no radiation, 10 mg/kg oral): 0.00595; inhibition of radiation-induced phosphorylation of DNA-PKcs (Ser2056), ATM (Ser1981) and KAP1 (ser824) [2]: potent dose-dependent inhibition
